Laboratory results as given in paper PMC7767506, “Synthesis and Characterization of Store-Operated Calcium Entry Inhibitors Active in the Submicromolar Range” (International Journal of Molecular Sciences, 2020).

Legend:
[1] = tested on: PHA-stimulated Jurkat cells; experiment: PHA-induced Ca2+ mobilization in Jurkat cells, Indo-1; format: cell-based, human
Excerpt: Having shown that compound P11 was able to block the Jurkat cell SOCE, we next performed experiments using phytohemagglutinin (“PHA”). PHA is commonly used to cross-link the T cell receptor allowing the synthesis of IL-2 and thereafter the T cell activation. […] Noteworthy, PHA was able to induce a weak Ca^2+ release from internal stores (orange curve). […] However, after reaching a peak at 180 s, the [Ca^2+]cyt started to decay and decreased to a value beneath the [Ca^2+]cyt before cell stimulation.
In experiments with PHA, cells were placed in the cuvette, and 0.9 mM CaCl2 was added to reach a 1 mM extracellular concentration. Free Ca^2+ concentrations were calculated using the Bad4 software

[2] = tested on: ER Ca2+ stores of L15 fibroblasts; experiment: Basal Ca2+ leak from ER stores, unidirectional 45Ca2+ flux in permeabilized L15 fibroblasts; format: cell-based
Experimental: Measurements of SERCA-mediated ^45Ca^2+ store loading and IP3-dependent release from the ER Ca^2+ store were performed on permeabilized cells in unidirectional conditions. As this approach required the use of cells forming strongly adherent monolayers, we used L15 fibroblasts stably overexpressing IP3R1, similarly to our previous work.
The L15 fibroblasts stably overexpressing IP3R1 were seeded in gelatin-coated 12-well plates (Greiner, Frickenhausen, Germany) at a density of 60,000 cells per well. Unidirectional ^45Ca^2+ flux experiments on confluent cell monolayers were performed at 30 °C after membrane permeabilization with saponin (40 µg/mL), exactly as previously described. After permeabilization, the non-mitochondrial Ca^2+ stores were loaded for 45 min in 120 mM KCl, 30 mM imidazole–HCl (pH 6.8), 5 mM MgCl2, 5 mM ATP, 0.44 mM EGTA, 10 mM NaN3, and 150 nM free ^45Ca^2+ (28 µCi mL^−1). Subsequently, efflux was initiated by incubation in efflux medium (120 mM KCl, 1 mM EGTA, 10 µM TG and 30 mM imidazole–HCl pH 6.8). […] The exact amount of Ca^2+ at each time point is calculated by summing in retrograde order the amount of radioactivity remaining in the cells at the end of the efflux and the radioactivity collected during the successive time intervals. […] These various parameters were measured both in control conditions or in the presence of various 2-APB analogs as indicated. […]

[3] = tested on: Orai1-deficient lymphoblastoid cell line; experiment: SOCE in Orai1-deficient lymphoblastoid cell line (LCL Orai1-); format: cell-based, human; details: 1 µM
Experimental: We next tested P11 efficacy on two lymphoblastoid cell lines (“LCL”) established from an Orai1-deficient with a severe combined immunodeficiency (“LCL Orai1−”) and a healthy (“LCL Orai1+”) patients (Figure 3C [19]). […] However, CaCl2 addition after 10 min of TG treatment was only able to induce a massive [Ca^2+]cyt rise in LCL expressing Orai1 proteins, confirming the SOCE default of the SCID patient.
[Ca^2+]cyt was recorded by a fluorimetric ratio technique as previously described. Leukocytes were spun and resuspended at a density of 10^6 cells/mL in Hepes buffered saline (HBS; 135 mM NaCl, 5.9 mM KCl, 1.2 mM MgCl2, 11.6 mM Hepes, 11.5 mM glucose adjusted to pH 7.3 with NaOH). Due to the presence of 0.002% Ca^2+ in the NaCl, this HBS medium contained 0.1 mM of Ca^2+. […] Ultraviolet light of 360 nm was used for excitation of Indo-1, and emissions at 405 and 480 nm were recorded. […] The maximum Indo-1 fluorescence (Rmax) was obtained by adding 1 µM ionomycin to the cell suspension in the presence of 10 mM extracellular CaCl2. Minimum fluorescence was determined following the depletion of external Ca^2+ with 5 mM EGTA.
To visualize the SOCE, cells were placed into the quartz cuvette and 0.5 EGTA was added just before the beginning of the recordings. […] In the dose-response experiments, different concentrations of 2-APB and its analogs were added 30 s prior to Ca^2+ readdition.

2-(dibiphenyl-4-ylboryloxy)ethanamine [P11]
PHA-induced Ca2+ release from internal stores ([1]; 1 µM): did not affect
PHA-induced Ca2+ mobilization ([1]; increasing [P11], 10 µg/mL PHA, 1 mM extracellular CaCl2): largely inhibited
Ca2+ leak from the ER by an IP3-independent pathway [2]: did not induce a Ca^2+ leak
effect on [Ca2+]cyt after SOCE activation [3]: inefficient
